Patent US20190151307A1 (priority 2017, published 2019)

Experiments:
[1] = clinical; format: in vivo, human; conditions: single dose BIC 75 mg, fed, RIF 600 mg
Method: This was a Phase 1, open-label, multiple-dose, multiple-cohort, adaptive design study in healthy adult subjects.
The duration of dosing was 9 days (with a 3-day washout between the first and second doses of study treatment). The study duration (not including screening) was approximately 21 days. The study had n=15 subjects.
In addition, the following multiple-dose plasma PK parameters of GS-9883 were calculated, as applicable: Ctau, Cmax, Clast, AUCtau, Tmax, Tlast, t1/2, and CL/F.
Serial blood samples for intensive PK sampling were collected at the following time points relative to the morning dose of study drug(s) administered: 0 (pre-dose) and 0.5, 1, 1.5, 2, 3, 4, 6, 8, 10, 12, 16, 24, 36, 48, 72, and 96 hours post-dose on Days 1 and 15. Daily pre-dose PK sampling was collected at days 10 and 14.
The ANOVA model included treatment as a fixed effect and subject as a random effect.

[2] = Phase 1 study: steady-state plasma PK of TAF and TFV after B/F/TAF BID with rifampin vs B/F/TAF QD alone; format: in vivo, human; conditions: BID TAF administration (B/F/TAF BID+RIF), compared to prior PK results of TDF-containing regimens, FIG. 2
Method: This study evaluated the steady state pharmacokinetics of TAF, TAF metabolite TFV, and emtricitabine (FTC) following coadministration of bictegravir/emtricitabine/tenofovir alafenamide (B/F/TAF) fixed dose combination (FDC) twice daily with rifampin 600 mg once daily compared to those of B/F/TAF FDC once daily administered alone.
In this Phase 1, open-label, parallel multiple dose study, healthy volunteers were assigned to one of two cohorts (cohort 1 (n=26) or cohort 2 (n=26)) and received study treatments beginning on day 1 and continuing for 28 days (cohort 1) or 35 days (cohort 2).
The duration of the study was approximately 57 days for cohort 1 and approximately 44 days for cohort 2. […]
Pharmacokinetic assessments of plasma PK and PBMC PK were evaluated. […] PK parameters of TFV-DP and FTC-TP in PBMCs were calculated as applicable and included AUCtau, Ctrough, Cmax, accumulation ratios, and t1/2 with and without RIF. […]
Plasma concentrations of TAF and TFV were determined and pharmacokinetics were evaluated as applicable.
Plasma concentrations were determined using validated liquid chromatography-tandem mass spectrometry (LC/MS/MS) assays. Intracellular PBMC TFV-DP concentrations were determined via a validated LC/MS/MS assay combined with PBMC cell counting via a DNA quantitation procedure. […]

[3] = system: HIV; conditions: cited from earlier work
[4] = intracellular TFV-DP with TDF; cited from earlier work
[5] = peripheral blood mononuclear cells (PBMC) isolated from patients; cited from earlier work

## O=C(NCc1c(F)cc(F)cc1F)c1cn2c(c(O)c1=O)C(=O)N1[C@H]3CC[C@H](C3)O[C@@H]1C2 [BIC]
[1]; human, in vivo, BIC t1/2, plasma, median per text
  half-life: ~18.1 h
[1]; plasma
  BIC % AUCexp, Mean (% CV): 3.1%
  BIC CL/F, Mean (% CV): 545.1 mL/h
  BIC Clast, Mean (% CV): 192.7 ng/mL
  BIC Tlast: 95.93 h

## CC(C)OC(=O)[C@H](C)N[P@](=O)(CO[C@H](C)Cn1cnc2c(N)ncnc21)Oc1ccccc1 [TAF, 9-[(R)-2-[[(S)-[[(S)-1-(isopropoxycarbonyl)ethyl]amino]phenoxyphosphinyl]-methoxy]propyl]adenine]
[2]
  total overall systemic TFV plasma exposure over 24 hours vs TDF-containing regimens: markedly lower
[3]
  enhancement in anti-HIV activity in cell culture of TAF over TFV: 600 fold

## CC(C)OC(=O)OCOP(=O)(CO[C@H](C)Cn1cnc2c(N)ncnc21)OCOC(=O)OC(C)C [TDF, 9-[(R)-2-[[bis[[(isopropoxycarbonyl)oxy]methoxy]phosphinyl]methoxy]propyl]adenine]
[4]
  historical steady-state TFV-DP threshold effectiveness concentration: 85-222 fmol/10^6 cells

## C[C@@H](Cn1cnc2c(N)ncnc21)OCP(=O)(O)OP(=O)(O)OP(=O)(O)O [TFV-DP]
[5]
  intracellular half-life: 150 h
